pIC50: −log10 of the molar value. Read-outs that look alike come from different tables or passages of the source.
How the values were obtained:
EGFR^L858R Ba/F3 cells = test: Antiproliferation assay (CellTiter-Glo); type: cell-based; details: vs ZNL-0056 and ZNL-0091
Procedure: (§1) Figure S6 Dose-response curves for the indicated compounds in EGFRL858R, EGFRL858R/C797S, and EGFRL858R/C775S Ba/F3 cells following 72 h of treatment. Cell viability was assessed with CellTiter-Glo.
(§2) Data are presented as the mean ± SEM (n = 4). Representative data from three independent experiments
(§3) (1 picture or pasted object on this page, not shown here)
(§4) For infection of Ba/F3 cells, 2.5 mL of viral supernatant and 8 μg/mL polybrene was added to 2.5 million cells per well in six-well plates. The plate was centrifuged at 2500 rpm for 90 minutes at 37 °C for the spin infection. Then, virus-containing medium was removed 48 hours later and successfully infected cells were selected with the addition of 1 μg/mL puromycin to the medium.
(§5) After 3 days, cells were transferred into the fresh medium without IL-3 and puromycin. IL-3-independent transformed cells were maintained in RPMI medium 1640 supplemented with 10%
(§6) FBS. Expression of EGFR was examined by Western blot.
(§7) Immunoblotting and antibodies
(§8) Cells were lysed in RIPA buffer (150 mM NaCl, 1.0% IGEPAL® CA-630, 0.5% sodium deoxycholate, 0.1% SDS, 50 mM Tris, pH 8.0) (Sigma, Cat# R0278) with protease inhibitor and phosphatase inhibitor (Roche). The protein concentrations were measured by BCA analysis (Thermo Fisher Scientific, Cat # PI23225). […]
(§9) or IRDye 680RD goat anti-Mouse IgG (LICOR Biosciences , Cat # 926-68070) secondary antibodies at room temperature for 1 hour. The membranes were detected on Odyssey CLx system. […]
(§10) treatment. Cell viability was determined by using CellTiter-Glo (Promega #G7571) according to the manufacturer’s instructions, measuring luminescence using an Envision plate-reader (PerkinElmer Inc.). […]
(§11) After 6 hours treatment, cells were pelleted, washed with PBS once and lysed with IP lysis buffer (25mMTris-HCl pH 7.4, 150mM NaCl, 1 mM EDTA, 1% NP-40 and 5% glycerol) (Thermo Fisher Scientific, Cat#87788) containing protease/phosphatase inhibitor cocktail (Roche). The protein concentrations were measured by BCA analysis (Pierce). […]

[1] = system: EGFR^L858R/C775S Ba/F3 cells; test: Antiproliferation assay (CellTiter-Glo); type: cell-based; details: vs EGFR^L858R Ba/F3
Procedure: as §1, §2, §3, §4, §5, §6, §7, §8, §9, §10, §11

MKK7 = target: T1, MKK7 (Homo sapiens, UniProt O14733); test: MKK7 binding, KdELECT assays (DiscoverX); details: for fold loss of potency: vs ZNL-8162
T1 construct: purchased DiscoverX
T1 sequence (O14733 1-419): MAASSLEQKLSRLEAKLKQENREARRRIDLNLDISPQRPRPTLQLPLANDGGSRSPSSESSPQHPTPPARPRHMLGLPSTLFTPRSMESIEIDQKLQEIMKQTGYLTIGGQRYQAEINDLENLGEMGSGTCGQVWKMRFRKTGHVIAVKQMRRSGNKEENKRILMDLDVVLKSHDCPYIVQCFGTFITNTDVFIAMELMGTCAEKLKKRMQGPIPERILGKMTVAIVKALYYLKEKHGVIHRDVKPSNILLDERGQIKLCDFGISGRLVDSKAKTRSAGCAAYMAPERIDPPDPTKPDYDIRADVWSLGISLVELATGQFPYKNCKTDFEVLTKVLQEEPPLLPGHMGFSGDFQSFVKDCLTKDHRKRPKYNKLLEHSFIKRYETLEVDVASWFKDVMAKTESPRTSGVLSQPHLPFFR
Text: Figure 2 ZNL-8162 is a molecular bident for MKK7. (A) Compound structures for MKK7-targeting molecular bident (ZNL-8162) and its relatives lacking one or both cysteine-reactive groups. (B) Covalent modeling for ZNL-8162 engagement of MKK7(PDB: 6YG3). (C) MS/MS spectrum of ZNL-8162 covalently modifying Cys218 and Cys276 of MKK7. Red and yellow circles indicate ions of type y for sequences marked (1) and (2), respectively. Blue circles indicate ions of b for sequence (1). *, carbamidomethyl cysteine, Δ, oxidized methionine. (D) MKK7 binding data were obtained from KdELECT assays (DiscoverX). Data are presented as mean ± s.d. of n = 2 biologically independent samples.
Table S2. […]

p-JNK1/2 = test: Immunoblot of MKK7-JNK pathway in MDA-MB-231 cells; type: cell-based; details: MDA-MB-231, anisomycin, 16 h, up to 10 μM
Procedure: Figure S1. Effects of the indicated compounds on the MKK7 -JNK pathway in MDA -MB-231 cells after 16 h treatment. MDA -MB-231 cells were pretreated with anisomycin for 45 min prior to the addition of the indicated compounds f or 16 h. Representative data from two independent […]
Anisomycin (10 μg/mL) - + + +
(1 picture or pasted object on this page, not shown here) […]
as §7
Cells were lysed in RIPA buffer (150 mM NaCl, 1.0% IGEPAL® CA-630, 0.5% sodium deoxycholate, 0.1% SDS, 50 mM Tris, pH 8.0) (Sigma, Cat# R0278) with protease inhibitor and phosphatase inhibitor (Roche). The protein concentrations were measured by BCA analysis (Thermo Fisher Scientific, Cat # PI23225). Equal amounts of protein were resolved by 4-12% Bis-Tris gels (Life Technologies), and then transferred to the Immuno-Blot PVDF membrane (BioRad, cat # 1620177). The membranes were blocked by Intercept blocking buffer (LI-COR, cat #927-60001) for 1 hour at room temperature. Proteins were probed with appropriate primary antibodies at 4 ℃ overnight and then with IRDye®800-labeled goat anti-rabbit IgG (LICOR Biosciences, cat […]
or IRDye 680RD goat anti-Mouse IgG (LICOR Biosciences , Cat # 926-68070) secondary antibodies at room temperature for 1 hour. The membranes were detected on Odyssey CLx system.
Antibodies used in this study include anti-following proteins: EGFR (Cell signaling Technology, […]
Akt (Cell signaling Technology, # 9272L, 1:1000), p-Akt (Cell Signaling Technology, #4060S,

EGFR = system: T2, EGFR; test: Cellular target engagement assays (competitive pulldown); type: cell-based; details: 1 μM probe
T2 construct: expressed in transfected cells; host or cells: Ba/F3 (murine pro-B cells transduced with an EGFR mutant expression vector)
Procedure: Figure 4 ZNL-0056 covalently engages Cys775 and Cys797 in EGFR Ba/F3 cells. (A) Carton of competition EGFR pulldown strategy to test covalent EGFR engagement in cells. (B) Competitive pulldown assay in EGFR^L858R Ba/F3 cells treated with ZNL-0056 at the indicated concentrations for 6 h. Cell lysates were incubated with bio-osimertinib. (C) Competitive pulldown assay in EGFR^L858R Ba/F3 cells treated with ZNL-0056 at the indicated concentrations for 6 h. Cell lysates were incubated with bio-ZNL-0013, which competes for the binding pocket of the target kinase. (D) Competitive pulldown assay in EGFR^L858R/C797S Ba/F3 cells treated with ZNL-0056 at the indicated concentrations for 6 h. Cell lysates were incubated with bio-ZNL-0013, which competes for the binding pocket of the target kinase. Western blotting showing the pulldown (PD) or input (total lysate) of EGFR. […]
as §10, §11

[2] = Figure 2D, read-out: IC50 against MKK7

| SMILES | pIC50 (MKK7; [2]) | fold loss of potency (MKK7) [fold] | inhibition of p-JNK1/2 (p-JNK1/2) | also measured |
| --- | --- | --- | --- | --- |
| C=CC(=O)Nc1cc(C(=O)Nc2nc3cccc(C)c3n2[C@@H]2CCCCN(C(C)=O)C2)cs1 [ZNL-0013] |  |  |  | cell growth inhibition activity, fold weaker (EGFR^L858R Ba/F3 cells): about 5 fold; potency loss (shift) in the EGFR^L858R/C775S mutant [1]: 20 fold |
| C=CC(=O)Nc1ccccc1Nc1nc(NC2CCN(C(=O)C=C)C2)ncc1Cl (centres unmarked) [ZNL-8162] | 6.88 |  | strong inhibition | pIC50 (MKK7; from ZNL-8163 and ZNL-8165 IC50 data, read-out: IC50 estimated from single warhead compounds assuming independent contributions from both covalent bonds): ~6.74 |
| C=CC(=O)Nc1cc(C(=O)Nc2nc3cccc(C)c3n2[C@@H]2CCCCN(C(=O)CCOCCOCCOCCOCCNC(=O)CCCC[C@@H]3SC[C@@H]4NC(=O)N[C@@H]43)C2)cs1 [bio-ZNL-0013] |  |  |  | enrichment of EGFR from cell lysate under denaturing conditions (EGFR): significant enrichment |

Now from value to molecule, other results behind:

| pIC50 (MKK7; [2]) | fold loss of potency (MKK7) [fold] | SMILES | inhibition of p-JNK1/2 (p-JNK1/2) | also measured |
| --- | --- | --- | --- | --- |
| 6.36 | ~3 | C=CC(=O)Nc1ccccc1Nc1nc(NC2CCN(C(=O)CC)C2)ncc1Cl (centres unmarked) [ZNL-8163] | less potency |  |
| 6.50 | ~3 | C=CC(=O)N1CCC(Nc2ncc(Cl)c(Nc3ccccc3NC(=O)CC)n2)C1 (centres unmarked) [ZNL-8165] | less potency |  |
| < 5.00 |  | CCC(=O)Nc1ccccc1Nc1nc(NC2CCN(C(=O)CC)C2)ncc1Cl (centres unmarked) [ZNL-8166] | did not exhibit any inhibition |  |

— PMC11212140, “Molecular Bidents with Two Electrophilic Warheads as a New Pharmacological Modality” (ACS Central Science, 2024)
